Test results from paper PMC9661718, “Identification of Inhibitors of the Schistosoma mansoni VKR2 Kinase Domain” (ACS Medicinal Chemistry Letters, 2022).
“Also recorded” adds a separate entry of the source.

Key:
[1] = test system: adult S. mansoni worms; test: Ex vivo adult S. mansoni phenotypic screen (descriptors and severity scores); design: species or system Schistosoma mansoni; key to Descriptors 2 h / Descriptors 5 h / Descriptors 24 h: degenerating (deg); uncoordinated (unc); slow (S); on sides, inability of worms to adhere to well floor with either the oral or ventral sucker; teg bleb, damage to the surface tegument; settings: 10 μM compound; for Descriptors 2 h / Descriptors 5 h / Descriptors 24 h: ex vivo adult worms
Procedure: The 12 compounds identified from the SPR screen were tested against ex vivo adult S. mansoni worms to investigate whether they induce phenotypic alterations in the parasite. Compound effects at 10 μM were assessed at 2, 5, and 24 h, and activity was partially quantified using an observation-based severity scoring system that is designed to holistically assess the many different responses to chemical insult of which the schistosome is capable.[26],[27] For those compounds eliciting phenotypic changes, WormAssay was also employed as an additional readout to measure average worm motility per well.[28],[29] Four compounds, GW696155, GSK986310, GSK1520489, and SB-710363, produced a variety of effects in the worm (Figure 1; Table 2; Table S1). GW696155 generated the strongest responses. […] Although, SPR identified 12 compounds against the SmVKR2KD (Table 1), the absence of phenotypic activity for eight of these compounds (Table S2) could be due to their poor uptake by the parasite. It is also possible that the phenotypic changes noted for the four active compounds are only partially related or unrelated to engagement of the SmVKR2 target. […]
Preparation of S. mansoni
The acquisition, preparation and in vitro maintenance of S. mansoni have been described 11, 12.
We use a Naval Medical Research Institute (NMRI) isolate of S. mansoni that is cycled between Biomphalaria glabrata snails and male Golden Syrian hamsters (infected at 4-6 weeks of age) as intermediate and definitive hosts, respectively. Briefly, adult worms were harvested from hamsters 42 days post-infection in RPMI or DMEM, and washed five times prior to maintenance overnight at 37 °C and 5% CO2 in Basch medium 13 containing 4% heat-inactivated FBS, 100 μg/ml streptomycin and 100 U/ml penicillin. activity against adult Ex vivoS. mansoni
Ex vivo screens with adults employed 24-well flat-bottomed plates and approximately five males, two to three of which were paired to females. Screens incorporated a final compound concentration of 10 μM in DMSO (0.5% final concentration). The complex and often dynamic phenotypic responses that the schistosome parasite is capable of were observed using a Zeiss Axiovert A1 inverted microscope at 2, 5 and 24 h. Observations were classified using a constrained nomenclature that involves simple “descriptors” to convey changes in shape, motility and appearance, and the inability of the male worm to adhere to the bottom of the well, compared to DMSO controls 11, 14, 15. Each descriptor was given a value of 1 and these were added up to yield a “severity score” with a maximum of 4. Evidence of degeneracy or death was awarded a value of 4 as was damage to the tegument (surface), on the understanding this would compromise survival in vivo. Scores were averaged across 3-5 individual experiments.

[2] = test system: adult S. mansoni; test: WormAssay average worm motility per well; design: species or system Schistosoma mansoni; settings: 10 μM compound, 2, 5 and 24 h
Procedure: The 12 compounds identified from the SPR screen were tested against ex vivo adult S. mansoni worms to investigate whether they induce phenotypic alterations in the parasite. Compound effects at 10 μM were assessed at 2, 5, and 24 h, and activity was partially quantified using an observation-based severity scoring system that is designed to holistically assess the many different responses to chemical insult of which the schistosome is capable.[26],[27] For those compounds eliciting phenotypic changes, WormAssay was also employed as an additional readout to measure average worm motility per well.[28],[29] Four compounds, GW696155, GSK986310, GSK1520489, and SB-710363, produced a variety of effects in the worm (Figure 1; Table 2; Table S1). GW696155 generated the strongest responses. […] Although, SPR identified 12 compounds against the SmVKR2KD (Table 1), the absence of phenotypic activity for eight of these compounds (Table S2) could be due to their poor uptake by the parasite. It is also possible that the phenotypic changes noted for the four active compounds are only partially related or unrelated to engagement of the SmVKR2 target.
Figure 1 Changes in the average motility of adult S. mansoni as a function of time, as measured by WormAssay. Significance was determined by Student’s t-test (two-tailed): *P < 0.05, **p < 0.005, ***P < 0.0005. Data were derived from three to five biological assays with 10 μM compound. […]
The assay was performed according to the manufacturer’s recommendations without any modifications. The optimal concentration of the SmVKR2KD in the assay was established as µM. The autophosphorylation activity was measured at an ATP concentration of […] to aid the identification of competitive inhibitors as recommended by the ADP-Glo Kinase Assay (Promega) protocol. The autophosphorylation activity of the SmVKR2KD was measured in the presence and absence of inhibitors at various concentrations. […] The luminescence was measured using a CLARIOstar plate reader. […]

[3] = test system: SmVKR2; design: method as in PMID 23696913; settings: cited from earlier work
[4] = test system: SmVKR1; design: method as in PMID 23696913; settings: cited from earlier work
[5] = test system: schistosomes; design: method as in PMID 23696913; settings: cited from earlier work

| Compound | Descriptors 2 h [1] | Severity scores 2 h ([1]; maximum score 4) | Descriptors 5 h [1] | Severity scores 5 h ([1]; maximum score 4) | Descriptors 24 h [1] | Severity scores 24 h ([1]; maximum score 4) | severity score ([1]; time not given, maximum score 4) | average worm motility (WormAssay) [2] | inhibition of SmVKR2 [3] | inhibition of SmVKR1 [4] | apoptosis and egg production in schistosomes [5] | phenotypic activity assessed visually ([1]; time not stated) |
| --- | --- | --- | --- | --- | --- | --- | --- | --- | --- | --- | --- | --- |
| Cc1cccc(Nc2nc(N[C@H]3CCCC[C@H]3N)ncc2C(N)=O)c1 [GSK986310] | S | 1 | S | 1 | S | 1 | 1 | milder effect in decreasing worm movement |  |  |  |  |
| CS(=O)(=O)Nc1ccc(-c2ccnc3[nH]ccc23)cc1 [GSK993273] | none | 0 | none | 0 | none | 0 |  |  |  |  |  |  |
| CC(C)(C)c1cc(C=C(C#N)C#N)cc(Br)c1O [tyrphostin AG1024] |  |  |  |  |  |  |  |  | inhibited | inhibited | concentration-dependent apoptosis and cessation of egg production |  |
| CC(C)Oc1ccc2c(-c3ccnc(Nc4ccc(N5CCN(C)CC5)cc4)n3)cnn2n1 [GW696155] | decreased motility and lost their ability to adhere to the floor of the well; also recorded: S, on sides | 2 | Dark, S, on sides | 3 | worm degeneration and damage to the surface tegument in the form of blebs or bubbles; also recorded: Deg, S, on sides, teg bleb | 4 |  | decrease in average worm motility over time |  |  |  |  |
| NC(=O)Nc1sc(-c2ccc(F)cc2)cc1C(N)=O [GW789449] | none | 0 | none | 0 | none | 0 |  |  |  |  |  |  |
| CN(C)CCNS(=O)(=O)c1ccc(-c2ccnc3[nH]ccc23)cc1 [GSK977620] | none | 0 | none | 0 | none | 0 |  |  |  |  |  |  |
| CNC(=O)c1ccccc1Nc1nc(Nc2cccc(CS(C)(=O)=O)c2)ncc1C [GSK1520489] | unc | 1 | unc | 1 | unc | 1 |  | without a long-term decrease in average motility |  |  |  | mild uncoordinated motility |
| Cc1n[nH]c2cc(Nc3ccnc(Nc4cccc(CN5CCOCC5)c4)n3)ccc12 [GW682569] | none | 0 | none | 0 | none | 0 |  |  |  |  |  |  |
| NCCNS(=O)(=O)c1ccc(-c2ccnc3[nH]ccc23)cc1 [GSK977617] | none | 0 | none | 0 | none | 0 |  |  |  |  |  |  |
| Nc1nc(N)c2[nH]c(-c3ccccc3)nc2n1 [SKF-12778] | none | 0 | none | 0 | none | 0 |  |  |  |  |  |  |
| Cc1cccc(Nc2nc(NCCN)ncc2C(N)=O)c1 [GSK1292139] | none | 0 | none | 0 | none | 0 |  |  |  |  |  |  |
| Nc1n[nH]c2cnc(-c3ccccc3)cc12 [SB-642124] | none | 0 | none | 0 | none | 0 |  |  |  |  |  |  |
